Results: US20240409585A1, “MACROCYCLIC IMMUNOMODULATORS” (priority 2021, published 2024)
Bridge positions count the residues as written; N and C are the ends. Square brackets hold non-standard residues; d marks the D form. Peptide text beside a SMILES is read from it. * marks the point of attachment. ξ: configuration not given here. Phe(4-CONH2) = NC(=O)c1ccc(C[C@H](N)C(=O)O)cc1; Phe(4-COOH) = N[C@@H](Cc1ccc(C(=O)O)cc1)C(=O)O; Bip = N[C@@H](Cc1ccc(-c2ccccc2)cc1)C(=O)O; Phe(3-Me) = Cc1cccc(C[C@H](N)C(=O)O)c1; Val(3-OH) = CC(C)(O)[C@H](N)C(=O)O; 4Pal = N[C@@H](Cc1ccncc1)C(=O)O; 3Thi = N[C@@H](Cc1ccsc1)C(=O)O; Cha = N[C@@H](CC1CCCCC1)C(=O)O; Cit = NC(=O)NCCC[C@H](N)C(=O)O; Ile(3ξ) = CCC(C)[C@H](N)C(=O)O; Thr(3ξ) = CC(O)[C@H](N)C(=O)O; Pen = CC(C)(S)[C@H](N)C(=O)O; Pip = O=C(O)[C@@H]1CCCCN1; Carboxymethyl = O=C(O)C*; NMeA = CN[C@@H](C)C(=O)O; Dab = NCC[C@H](N)C(=O)O

What follows are compounds tested against T1, PE-labeled human PD-L1-Ig binding to Jurkat cell line over-expressing human PD-1 (Jurkat-PD-1) (Homo sapiens, UniProt Q15116) (assay: Jurkat-PD-1 Cell Binding High-Content Screening Assay (CBA): Method 1). Conditions: Jurkat-hPD-1 cells, PE-labeled PD-L1-Ig 20 nM final; read-out: Jurkat HPDL1 PD1 IC50 (uM) (Method 1).
T1 construct: expressed in transfected cells; host or cells: Jurkat
T1 sequence (Q15116 25-288): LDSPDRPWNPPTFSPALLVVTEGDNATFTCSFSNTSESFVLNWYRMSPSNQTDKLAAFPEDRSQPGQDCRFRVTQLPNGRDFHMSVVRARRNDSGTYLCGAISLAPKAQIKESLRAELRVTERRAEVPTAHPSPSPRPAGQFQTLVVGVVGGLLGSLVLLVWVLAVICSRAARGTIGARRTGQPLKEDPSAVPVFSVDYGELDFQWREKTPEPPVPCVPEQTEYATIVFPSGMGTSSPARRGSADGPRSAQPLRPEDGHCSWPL

SMILES	IC50
CC(=O)NCCCC[C@@H]1NC(=O)[C@H](Cc2ccc(-c3ccccc3)cc2)NC(=O)[C@H](Cc2ccc(O)cc2)NC(=O)[C@H](Cc2cccc(C)c2)NC(=O)[C@H](CC(=O)O)NC(=O)[C@H](Cc2ccc(OCC(=O)O)cc2)NC(=O)[C@H](C(C)O)NC(=O)CSC[C@@H](C(=O)N[C@@H](CO)C(N)=O)NC(=O)[C@H](C(C)O)NC(=O)[C@H](C(C)C)NC(=O)[C@H](CC2CCCCC2)NC(=O)[C@H](CCN)NC(=O)[C@@H](CC(C)C)NC(=O)[C@H](C)N(C)C1=O (stereo partly drawn) [Compound 2119] ({CH2CO}-[Thr(3ξ)]Y(Carboxymethyl)D[Phe(3-Me)]Y[Bip]K(Ac)[NMeA][dL][Dab][Cha]V[Thr(3ξ)]CS-NH2; thioether N-14)	0.02 µM
CCC(C)[C@@H]1NC(=O)[C@H](Cc2ccc(-c3ccccc3)cc2)NC(=O)[C@H](Cc2ccc(O)cc2)NC(=O)[C@H](Cc2cccc(C)c2)NC(=O)[C@H](CC(=O)O)NC(=O)[C@H](Cc2ccc(OCC(=O)O)cc2)NC(=O)[C@H](C(C)O)NC(=O)CSC[C@@H](C(=O)N[C@@H](CO)C(N)=O)NC(=O)[C@H](C(C)O)NC(=O)[C@H](C(C)C)NC(=O)[C@H](CC2CCCCC2)NC(=O)[C@H](CCN)NC(=O)[C@@H](CC(C)C)NC(=O)[C@H](C)N(C)C1=O (stereo partly drawn) [Compound 2121] ({CH2CO}-[Thr(3ξ)]Y(Carboxymethyl)D[Phe(3-Me)]Y[Bip][Ile(3ξ)][NMeA][dL][Dab][Cha]V[Thr(3ξ)]CS-NH2; thioether N-14)	0.04 µM
CC(C)C[C@@H]1NC(=O)[C@H](Cc2c[nH]c3ccccc23)NC(=O)[C@H](CC(=O)O)NC(=O)[C@H](Cc2ccc(OCC(=O)O)cc2)NC(=O)[C@H](Cc2ccc(OCC(=O)O)cc2)NC(=O)CSC[C@@H](C(=O)N[C@@H](C)C(N)=O)NC(=O)[C@H](CO)NC(=O)[C@H](C(C)C)NC(=O)[C@H](CC(C)C)NC(=O)[C@H](CCN)NC(=O)[C@@H](CC(C)C)NC(=O)[C@H](C)N(C)C(=O)[C@H](C(C)C)NC(=O)[C@H](Cc2ccc(-c3ccccc3)cc2)NC1=O [Compound 2123] ({CH2CO}-Y(Carboxymethyl)Y(Carboxymethyl)DWL[Bip]V[NMeA][dL][Dab]LVSCA-NH2; thioether N-14)	0.02 µM
CC(=O)NCCCC[C@@H]1NC(=O)[C@H](C(C)C)NC(=O)[C@H](CC2CCCCC2)NC(=O)[C@H](CCC(=O)O)NC(=O)[C@@H](CC(C)C)NC(=O)[C@H](C)N(C)C(=O)[C@H](Cc2cnc[nH]2)NC(=O)[C@H](Cc2ccc(-c3ccccc3)cc2)NC(=O)[C@H](CC(C)C)NC(=O)[C@H](Cc2cccc(C)c2)NC(=O)[C@H](CC(=O)O)NC(=O)[C@H](Cc2ccc(OCC(=O)O)cc2)NC(=O)[C@H](Cc2ccc(OCC(=O)O)cc2)NC(=O)CSC[C@@H](C(=O)N[C@H](C)C(N)=O)NC1=O [Compound 2124] ({CH2CO}-Y(Carboxymethyl)Y(Carboxymethyl)D[Phe(3-Me)]L[Bip]H[NMeA][dL]E[Cha]VK(Ac)C[dA]-NH2; thioether N-14)	0.04 µM
CC(C)C[C@H]1NC(=O)[C@@H]2CCCCN2C(=O)[C@H](Cc2c[nH]cn2)NC(=O)[C@H](Cc2ccc(-c3ccccc3)cc2)NC(=O)[C@H](C(C)C)NC(=O)[C@H](Cc2c[nH]c3ccccc23)NC(=O)[C@H](CC(=O)O)NC(=O)[C@H](Cc2ccc(C(=O)O)cc2)NC(=O)[C@H](Cc2ccncc2)NC(=O)CSC[C@@H](C(=O)N[C@H](C)C(N)=O)NC(=O)[C@H](CO)NC(=O)[C@H](C(C)C)NC(=O)[C@H](CC2CCCCC2)NC(=O)[C@H](CCN)NC1=O [Compound 2125] ({CH2CO}-[4Pal][Phe(4-COOH)]DWV[Bip]H[Pip][dL][Dab][Cha]VSC[dA]-NH2; thioether N-14)	0.04 µM
Cc1cccc(C[C@@H]2NC(=O)[C@H](CC(=O)O)NC(=O)[C@H](Cc3ccc(OCC(=O)O)cc3)NC(=O)[C@H](Cc3ccc(OCC(=O)O)cc3)NC(=O)CSC(C)(C)[C@@H](C(=O)N[C@H](C)C(N)=O)NC(=O)[C@H](CCCNC(N)=O)NC(=O)[C@H](C(C)C)NC(=O)[C@H](CC3CCCCC3)NC(=O)[C@H](CCN)NC(=O)[C@@H](CC(C)C)NC(=O)[C@H](C)N(C)C(=O)[C@H](Cc3cnc[nH]3)NC(=O)[C@H](Cc3ccc(-c4ccccc4)cc3)NC(=O)[C@H](Cc3ccc(C(N)=O)cc3)NC2=O)c1 [Compound 2126] ({CH2CO}-Y(Carboxymethyl)Y(Carboxymethyl)D[Phe(3-Me)][Phe(4-CONH2)][Bip]H[NMeA][dL][Dab][Cha]V[Cit][Pen][dA]-NH2; thioether N-14)	0.66 µM

The remaining lines, values ahead:

IC50	SMILES
0.01 µM	CC(=O)NCCCC[C@@H]1NC(=O)[C@H](C(C)C)NC(=O)[C@H](CC2CCCCC2)NC(=O)[C@H](CCN)NC(=O)[C@@H](CC(C)C)NC(=O)[C@H](C)N(C)C(=O)[C@H](CCC(N)=O)NC(=O)[C@H](Cc2ccc(-c3ccccc3)cc2)NC(=O)[C@H](C(C)C)NC(=O)[C@H](Cc2c[nH]c3ccccc23)NC(=O)[C@H](CC(=O)O)NC(=O)[C@H](Cc2ccc(OCC(=O)O)cc2)NC(=O)[C@H](Cc2ccsc2)NC(=O)CSC[C@@H](C(=O)N[C@@H](CCN)C(N)=O)NC1=O [Compound 2127] ({CH2CO}-[3Thi]Y(Carboxymethyl)DWV[Bip]Q[NMeA][dL][Dab][Cha]VK(Ac)C[Dab]-NH2; thioether N-14)
0.01 µM	Cc1cccc(C[C@@H]2NC(=O)[C@H](CC(=O)O)NC(=O)[C@H](Cc3ccc(OCC(=O)O)cc3)NC(=O)[C@H](Cc3ccsc3)NC(=O)CSC[C@@H](C(=O)N[C@@H](CCN)C(N)=O)NC(=O)[C@H](C(C)O)NC(=O)[C@H](C(C)C)NC(=O)[C@H](CC3CCCCC3)NC(=O)[C@H](CCN)NC(=O)[C@@H](CC(C)C)NC(=O)[C@H](C)N(C)C(=O)[C@H](Cc3ccc(OCC(=O)O)cc3)NC(=O)[C@H](Cc3ccc(-c4ccccc4)cc3)NC(=O)[C@H](Cc3ccc(C(=O)O)cc3)NC2=O)c1 (stereo partly drawn) [Compound 2128] ({CH2CO}-[3Thi]Y(Carboxymethyl)D[Phe(3-Me)][Phe(4-COOH)][Bip]Y(Carboxymethyl)[NMeA][dL][Dab][Cha]V[Thr(3ξ)]C[Dab]-NH2; thioether N-14)
0.01 µM	CC(=O)NCCCC[C@@H]1NC(=O)[C@H](C(C)C)NC(=O)[C@H](CC2CCCCC2)NC(=O)[C@H](CCN)NC(=O)[C@@H](CC(C)C)NC(=O)[C@H](C)N(C)C(=O)[C@H](CCC(N)=O)NC(=O)[C@H](Cc2ccc(-c3ccccc3)cc2)NC(=O)[C@H](C(C)C)NC(=O)[C@H](Cc2cccc(C)c2)NC(=O)[C@H](CC(=O)O)NC(=O)[C@H](Cc2ccc(OCC(=O)O)cc2)NC(=O)[C@H](Cc2ccc(OCC(=O)O)cc2)NC(=O)CSC[C@@H](C(=O)N[C@@H](CCN)C(N)=O)NC1=O [Compound 2129] ({CH2CO}-Y(Carboxymethyl)Y(Carboxymethyl)D[Phe(3-Me)]V[Bip]Q[NMeA][dL][Dab][Cha]VK(Ac)C[Dab]-NH2; thioether N-14)
0.03 µM	CC(C)C[C@H]1NC(=O)[C@H](C)N(C)C(=O)[C@H](Cc2ccc(OCC(=O)O)cc2)NC(=O)[C@H](Cc2ccc(-c3ccccc3)cc2)NC(=O)[C@H](Cc2ccc(C(=O)O)cc2)NC(=O)[C@H](Cc2c[nH]c3ccccc23)NC(=O)[C@H](CC(=O)O)NC(=O)[C@H](Cc2ccc(OCC(=O)O)cc2)NC(=O)[C@H](Cc2ccsc2)NC(=O)CSC[C@@H](C(=O)N[C@@H](CCN)C(N)=O)NC(=O)[C@H](CO)NC(=O)[C@H](C(C)(C)O)NC(=O)[C@H](CC2CCCCC2)NC(=O)[C@H](CCN)NC1=O [Compound 2130] ({CH2CO}-[3Thi]Y(Carboxymethyl)DW[Phe(4-COOH)][Bip]Y(Carboxymethyl)[NMeA][dL][Dab][Cha][Val(3-OH)]SC[Dab]-NH2; thioether N-14)
0.07 µM	CC(C)C[C@H]1NC(=O)[C@H](C)N(C)C(=O)[C@H](Cc2ccc(OCC(=O)O)cc2)NC(=O)[C@H](Cc2ccc(-c3ccccc3)cc2)NC(=O)[C@H](Cc2ccc(C(=O)O)cc2)NC(=O)[C@H](Cc2c[nH]c3ccccc23)NC(=O)[C@H](CC(=O)O)NC(=O)[C@H](Cc2ccc(OCC(=O)O)cc2)NC(=O)[C@H](Cc2ccsc2)NC(=O)CSC[C@@H](C(=O)N[C@@H](CCN)C(N)=O)NC(=O)[C@H](CO)NC(=O)[C@H](C(C)(C)O)NC(=O)[C@H](CC2CCCCC2)NC(=O)[C@H](CC(N)=O)NC1=O [Compound 2131] ({CH2CO}-[3Thi]Y(Carboxymethyl)DW[Phe(4-COOH)][Bip]Y(Carboxymethyl)[NMeA][dL]N[Cha][Val(3-OH)]SC[Dab]-NH2; thioether N-14)
0.01 µM	Cc1cccc(C[C@@H]2NC(=O)[C@H](CC(=O)O)NC(=O)[C@H](Cc3ccc(C(=O)O)cc3)NC(=O)[C@H](Cc3ccsc3)NC(=O)CSC[C@@H](C(=O)N[C@@H](CCN)C(N)=O)NC(=O)[C@H](CO)NC(=O)[C@H](C(C)(C)O)NC(=O)[C@H](CC3CCCCC3)NC(=O)[C@H](CCN)NC(=O)[C@@H](CC(C)C)NC(=O)[C@H](C)N(C)C(=O)[C@H](Cc3ccc(OCC(=O)O)cc3)NC(=O)[C@H](Cc3ccc(-c4ccccc4)cc3)NC(=O)[C@H](Cc3ccc(OCC(=O)O)cc3)NC2=O)c1 [Compound 2133] ({CH2CO}-[3Thi][Phe(4-COOH)]D[Phe(3-Me)]Y(Carboxymethyl)[Bip]Y(Carboxymethyl)[NMeA][dL][Dab][Cha][Val(3-OH)]SC[Dab]-NH2; thioether N-14)
0.01 µM	Cc1cccc(C[C@@H]2NC(=O)[C@H](CC(=O)O)NC(=O)[C@H](Cc3ccc(OCC(=O)O)cc3)NC(=O)[C@H](Cc3ccncc3)NC(=O)CSC[C@@H](C(=O)N[C@@H](CCN)C(N)=O)NC(=O)[C@H](CO)NC(=O)[C@H](C(C)(C)O)NC(=O)[C@H](CC3CCCCC3)NC(=O)[C@H](CCN)NC(=O)[C@@H](CC(C)C)NC(=O)[C@H](C)N(C)C(=O)[C@H](Cc3ccc(OCC(=O)O)cc3)NC(=O)[C@H](Cc3ccc(-c4ccccc4)cc3)NC(=O)[C@H](Cc3ccc(OCC(=O)O)cc3)NC2=O)c1 [Compound 2135] ({CH2CO}-[4Pal]Y(Carboxymethyl)D[Phe(3-Me)]Y(Carboxymethyl)[Bip]Y(Carboxymethyl)[NMeA][dL][Dab][Cha][Val(3-OH)]SC[Dab]-NH2; thioether N-14)
